Laboratory results reported in patent US20030055003A1, “Use of copper chelators to inhibit the inactivation of protein C” (priority 2001, published 2003).
Values joined by “and” are separate entries in the source; they are usually repeats but may differ in a detail not shown here. Equal entries are not always repeated. Values belong to the compound of their own block, whether it stands above or below them. Where a SMILES comes first, the peptide text is derived from it.

Key:
[1] = target: T1, activated protein C (APC) (Homo sapiens, UniProt P04070); assay: APC activity assay (Accucolor assay, modified for aqueous environment); type: biochemical
T1 construct: purchased Sigma (St. Louis, Mo.) P2200
Description: Materials. The human albumin N-terminus analogue, d-DAHK, was synthesized by Bowman Research, Ltd (Newport, Wales, U.K.). The assay for APC anticoagulant activity was the Accucolor™ calorimetric assay (Sigma Diagnostics, St. Louis, Mo.). […] Copper content of APC was determined by graphite furnace atomic absorption (Galbraith Laboratories, Knoxville, Tenn.).
APC activity assay. The APC assay, originally designed for plasma samples (Francis et al., Am. J. Clin. Pathol. 87, 619-625 (1987)) was modified for use in a clean, aqueous environment. […] Experiments were performed in a 96-well plate. […] Protein C substrate (2 mg/L) was then added to each well and incubated for ten minutes at 37° C. Concentrated acetic acid was added to each well to stop the reaction and the results were read at 410 nm on a microplate fluorescence reader (Model FL600, Bio-Tek Instruments, Inc., Winooski, Vt.).

[2] = Model of the blood brain barrier; type: in vitro ADME
From the text: In P1, Xaa1 is most preferably Asp, Xaa2 is most preferably Ala, and Xaa3 is most preferably Lys (see above). Thus, the preferred sequences of P1 are Asp Ala His and Asp Ala His Lys [SEQ ID NO: 1]. Most preferably the sequence of P1 is Asp Ala His Lys [SEQ ID NO: 1]. Asp Ala His is the minimum sequence of the N-terminal metal-binding site of human serum albumin necessary for the high-affinity binding of Cu(lI) and Ni(II), and Lys has been reported to contribute to the binding of these metal ions to this site. […] Other preferred sequences for P, include Thr Leu His (the N-terminal sequence of human a-fetoprotein), Arg Thr His (the N-terminal sequence of human sperm protamin HP2) and HMS HMS His (a synthetic peptide reported to form extremely stable complexes with copper; see Mlynarz et al., Speciation 98: Abstracts, Apr. 21, 1998, http://www.jate.uszeged.hu/spec98/abstr/mlynar.html).

T1 sequence (P04070 212-461 limits assumed): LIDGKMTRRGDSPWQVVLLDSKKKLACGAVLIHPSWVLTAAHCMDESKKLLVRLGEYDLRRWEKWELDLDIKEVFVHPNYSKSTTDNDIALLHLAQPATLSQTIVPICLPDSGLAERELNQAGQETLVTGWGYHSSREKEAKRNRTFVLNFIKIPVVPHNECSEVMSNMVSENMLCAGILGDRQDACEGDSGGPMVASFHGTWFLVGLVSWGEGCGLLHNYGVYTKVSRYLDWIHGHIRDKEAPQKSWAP
T1 sequence (P04070 43-197 limits assumed): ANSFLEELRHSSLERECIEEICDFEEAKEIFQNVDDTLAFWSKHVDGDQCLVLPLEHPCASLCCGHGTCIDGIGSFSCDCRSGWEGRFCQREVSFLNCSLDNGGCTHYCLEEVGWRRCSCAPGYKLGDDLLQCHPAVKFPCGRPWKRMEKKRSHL

overall mean decrease in APC activity compared to baseline ([1]; 10 μM CuCl2, mean of two separate experiments): 26.0%±11.8
decrease in APC activity compared to baseline ([1]; 10 μM CuCl2 with APC 2 mg/L, 30 min 37° C., single experiment, mean±SD, n=3): 27.9%±15.5 and 24.1%±9.7
Compound: [Cl][Cu][Cl] [CuCl2, reference compound]

Compound: C[C@H](NC(=O)[C@@H](N)CC(=O)O)C(=O)N[C@@H](Cc1c[nH]cn1)C(=O)N[C@@H](CCCCN)C(=O)O [Asp Ala His Lys] (H-DAHK-OH; N-terminus and C-terminus assumed)
passage through a model of the blood brain barrier [2]: pass through a model of the blood brain barrier

increase over baseline APC activity, chelator alone ([1]; 40 μM chelator with APC 2 mg/L, no added copper, 30 min 37° C., mean±SD): 18.2%±13.0
protection of copper-induced inhibition of APC, lower d-DAHK:CuCl2 ratios ([1]; d-DAHK:CuCl2 ratios below 2:1 (1:4, 1:2, 1:1)): no significant protection
increase of APC activity over baseline, d-DAHK:CuCl2 2:1 ([1]; ratio 2:1 d-DAHK:CuCl2, 30 min 37° C.): 12.9%±1.1
increase of APC activity over baseline, d-DAHK:CuCl2 4:1 ([1]; ratio 4:1 d-DAHK:CuCl2, 30 min 37° C.): 14.8%±12.7
Compound: D-Asp D-Ala D-His D-Lys [d-DAHK]
